{"source": "ChEMBL document CHEMBL5113527", "about": "“First-in-Class Hydrazide-Based HDAC6 Selective Inhibitor with Potent Oral Anti-Inflammatory Activity by Attenuating NLRP3 Inflammasome Activation” (J Med Chem, 2022)", "key": {"[1]": {"target": "T1, Protein deacetylase HDAC6 (Homo sapiens, UniProt Q9UBN7)", "T1 sequence (Q9UBN7 whole entry)": "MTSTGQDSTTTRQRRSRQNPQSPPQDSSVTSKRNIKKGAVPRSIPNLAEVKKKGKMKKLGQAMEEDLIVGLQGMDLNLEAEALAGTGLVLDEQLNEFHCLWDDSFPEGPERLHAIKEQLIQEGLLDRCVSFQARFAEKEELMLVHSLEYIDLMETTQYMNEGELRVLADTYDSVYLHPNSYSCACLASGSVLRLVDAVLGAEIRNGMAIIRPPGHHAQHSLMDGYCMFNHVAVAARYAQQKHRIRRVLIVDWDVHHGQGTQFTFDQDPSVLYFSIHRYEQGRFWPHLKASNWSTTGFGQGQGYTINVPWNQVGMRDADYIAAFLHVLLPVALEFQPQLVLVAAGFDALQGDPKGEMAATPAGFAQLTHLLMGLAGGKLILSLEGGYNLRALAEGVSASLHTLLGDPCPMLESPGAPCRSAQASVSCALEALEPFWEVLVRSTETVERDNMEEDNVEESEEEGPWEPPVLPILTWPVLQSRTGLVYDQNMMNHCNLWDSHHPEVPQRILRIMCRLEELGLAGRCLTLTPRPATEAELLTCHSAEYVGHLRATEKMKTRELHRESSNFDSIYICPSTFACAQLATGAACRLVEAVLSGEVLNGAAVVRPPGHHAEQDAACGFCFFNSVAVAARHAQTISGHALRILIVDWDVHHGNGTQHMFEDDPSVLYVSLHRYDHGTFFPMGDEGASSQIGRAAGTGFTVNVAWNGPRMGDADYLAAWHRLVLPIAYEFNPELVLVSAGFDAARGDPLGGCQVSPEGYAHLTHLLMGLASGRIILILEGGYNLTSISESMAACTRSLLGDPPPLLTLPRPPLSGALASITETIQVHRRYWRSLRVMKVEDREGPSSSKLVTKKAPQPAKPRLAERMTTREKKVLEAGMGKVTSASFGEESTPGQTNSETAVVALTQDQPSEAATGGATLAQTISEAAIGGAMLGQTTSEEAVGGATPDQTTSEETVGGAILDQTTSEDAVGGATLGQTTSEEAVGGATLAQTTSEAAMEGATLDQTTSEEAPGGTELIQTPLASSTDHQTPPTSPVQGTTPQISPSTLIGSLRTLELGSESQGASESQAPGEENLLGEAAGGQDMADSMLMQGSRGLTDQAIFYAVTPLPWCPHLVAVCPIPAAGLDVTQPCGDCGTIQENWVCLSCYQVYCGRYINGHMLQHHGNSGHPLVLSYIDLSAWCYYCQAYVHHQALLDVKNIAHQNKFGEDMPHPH", "assay": "Inhibition of recombinant HDAC6 (unknown origin) using Boc-Lys(acetyl)-AMC as substrate preincubated for 0 min followed by substrate addition and measured after 2 hrs by fluorescence based microplate reader analysis"}, "[2]": {"assay": "Ratio of drug concentration in brain to plasma of CD-1 mouse measured after 0.5 hrs by LC-MS/MS analysis", "type": "ADME", "settings": "read-out: BPR"}, "[3]": {"target": "T1, Protein deacetylase HDAC6", "assay": "Inhibition of recombinant HDAC6 (unknown origin) using Boc-Lys(acetyl)-AMC as substrate preincubated for 120 mins followed by substrate addition and measured after 2 hrs by fluorescence based microplate reader analysis"}, "[4]": {"assay": "Cmax in CD-1 mouse at 20 mg/kg, po measured after 0.083 to 24 hrs by LC-MS/MS analysis", "type": "ADME, organism-based", "parameters": "time 0.083-24 hrs, dose 20 mg/kg, route po", "settings": "in vivo"}, "[5]": {"target": "T1, Protein deacetylase HDAC6", "assay": "Inhibition of recombinant HDAC6 (unknown origin) using Boc-Lys(acetyl)-AMC as substrate preincubated for 30 mins followed by substrate addition and measured after 2 hrs by fluorescence based microplate reader analysis"}, "Histone deacetylase 2 [6]": {"target": "T2, Histone deacetylase 2 (Homo sapiens, UniProt Q92769)", "T2 sequence (Q92769 whole entry)": "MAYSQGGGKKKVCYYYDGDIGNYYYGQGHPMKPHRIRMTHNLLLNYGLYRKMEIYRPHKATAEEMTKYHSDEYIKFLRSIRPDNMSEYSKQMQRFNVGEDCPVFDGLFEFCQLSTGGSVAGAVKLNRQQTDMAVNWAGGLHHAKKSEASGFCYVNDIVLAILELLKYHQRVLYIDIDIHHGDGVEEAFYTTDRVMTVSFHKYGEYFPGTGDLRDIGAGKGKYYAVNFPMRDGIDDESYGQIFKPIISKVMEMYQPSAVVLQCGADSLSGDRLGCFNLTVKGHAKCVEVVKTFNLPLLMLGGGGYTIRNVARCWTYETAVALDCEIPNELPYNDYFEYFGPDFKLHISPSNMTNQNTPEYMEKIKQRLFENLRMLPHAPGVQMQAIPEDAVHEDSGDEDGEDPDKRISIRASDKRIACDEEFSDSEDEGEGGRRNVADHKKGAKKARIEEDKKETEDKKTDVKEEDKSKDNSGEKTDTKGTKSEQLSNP", "assay": "Inhibition of recombinant HDAC2 (unknown origin) using Boc-Lys(acetyl)-AMC as substrate preincubated for 1 hr followed by substrate addition and measured after 2 hrs by fluorescence based microplate reader analysis"}, "Histone deacetylase 9": {"target": "Histone deacetylase 9 (Homo sapiens, UniProt Q9UKV0)", "sequence (Q9UKV0 whole entry)": "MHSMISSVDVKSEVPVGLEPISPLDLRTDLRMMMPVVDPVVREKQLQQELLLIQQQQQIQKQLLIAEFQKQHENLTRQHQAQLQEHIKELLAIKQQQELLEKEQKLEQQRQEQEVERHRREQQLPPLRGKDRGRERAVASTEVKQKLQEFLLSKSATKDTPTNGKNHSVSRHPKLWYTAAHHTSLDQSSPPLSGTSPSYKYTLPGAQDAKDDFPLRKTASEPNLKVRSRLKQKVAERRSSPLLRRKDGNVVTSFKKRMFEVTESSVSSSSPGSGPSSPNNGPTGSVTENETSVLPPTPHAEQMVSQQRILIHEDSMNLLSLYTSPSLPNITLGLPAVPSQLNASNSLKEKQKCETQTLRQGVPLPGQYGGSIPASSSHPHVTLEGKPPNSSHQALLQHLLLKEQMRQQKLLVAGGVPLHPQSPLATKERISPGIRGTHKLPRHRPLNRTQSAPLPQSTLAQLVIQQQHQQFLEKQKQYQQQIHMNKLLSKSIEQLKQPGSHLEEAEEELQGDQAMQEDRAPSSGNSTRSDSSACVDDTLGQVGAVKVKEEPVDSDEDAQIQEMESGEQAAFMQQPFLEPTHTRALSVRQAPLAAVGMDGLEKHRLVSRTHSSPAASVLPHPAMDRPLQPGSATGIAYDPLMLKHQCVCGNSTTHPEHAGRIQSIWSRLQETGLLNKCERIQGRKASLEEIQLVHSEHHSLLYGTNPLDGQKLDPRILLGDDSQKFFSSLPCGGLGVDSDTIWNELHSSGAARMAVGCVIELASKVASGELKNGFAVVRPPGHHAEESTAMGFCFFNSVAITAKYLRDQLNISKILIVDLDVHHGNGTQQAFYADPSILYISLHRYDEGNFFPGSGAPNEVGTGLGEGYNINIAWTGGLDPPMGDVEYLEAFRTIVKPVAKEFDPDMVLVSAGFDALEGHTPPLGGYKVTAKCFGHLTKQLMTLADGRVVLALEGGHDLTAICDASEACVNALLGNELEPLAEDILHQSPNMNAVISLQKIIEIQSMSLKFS", "assay": "Inhibition of recombinant HDAC9 (unknown origin) using Boc-Lys (trifluoroacetyl) AMC as substrate preincubated for 1 hr followed by substrate addition and measured after 2 hrs by fluorescence based microplate reader analysis"}, "[7]": {"assay": "Brain concentration in CD-1 mouse at 20 mg/kg measured after 4 hrs by LC-MS/MS analysis", "type": "ADME, organism-based", "settings": "read-out: Ct"}, "Mus musculus [8]": {"system": "Mus musculus", "assay": "Inhibition of LPS-induced endotoxic shock in C57BL/6 mouse model serum assessed as decrease in IL-1beta level at 20 mg/kg, ip measured after 12 hrs", "type": "functional, organism-based"}, "Mus musculus [9]": {"system": "Mus musculus", "assay": "Inhibition of LPS-induced endotoxic shock in C57BL/6 mouse model serum assessed as decrease in IL-1beta level at 20 mg/kg, po measured after 12 hrs", "type": "functional, organism-based"}, "Histone deacetylase 3": {"target": "Histone deacetylase 3 (Homo sapiens, UniProt O15379)", "sequence (O15379 whole entry)": "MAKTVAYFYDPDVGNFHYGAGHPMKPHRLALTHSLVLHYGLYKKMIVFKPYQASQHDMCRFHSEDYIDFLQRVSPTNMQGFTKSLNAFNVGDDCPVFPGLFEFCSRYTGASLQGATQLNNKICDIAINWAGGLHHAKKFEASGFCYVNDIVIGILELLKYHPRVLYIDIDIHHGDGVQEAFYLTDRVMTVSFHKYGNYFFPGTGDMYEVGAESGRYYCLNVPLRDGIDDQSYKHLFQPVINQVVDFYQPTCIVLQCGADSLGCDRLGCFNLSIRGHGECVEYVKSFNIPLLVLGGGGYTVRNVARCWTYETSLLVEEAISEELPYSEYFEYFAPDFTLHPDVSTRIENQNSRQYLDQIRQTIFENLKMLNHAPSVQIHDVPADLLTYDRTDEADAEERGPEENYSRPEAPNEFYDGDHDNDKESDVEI", "assay": "Binding affinity to recombinant HDAC3 (unknown origin) assessed as inhibition constant using Boc-Lys(acetyl)-AMC as substrate preincubated for 1 hr followed by substrate addition and measured after 2 hrs by fluorescence based microplate reader analysis"}, "[10]": {"target": "T1, Protein deacetylase HDAC6", "assay": "Inhibition of recombinant HDAC6 (unknown origin) using Boc-Lys(acetyl)-AMC as substrate preincubated for 1 hr followed by substrate addition and measured after 2 hrs by fluorescence based microplate reader analysis"}, "[11]": {"target": "T3, Protein deacetylase HDAC6 (Homo sapiens) (UniProt Q9UBN7)", "T3 sequence (whole entry)": "T1 sequence (Q9UBN7 whole entry)", "assay": "Inhibition of HDAC6 in human MV4-11 cells assessed as decrease in hyper acetylation of histone alpha tubulin preincubated for 6 hrs followed by compound washout measured after 1 hr by western blot analysis", "type": "cell-based"}, "[12]": {"assay": "Acute toxicity in LPS-induced endotoxic shock C57BL/6 mouse model assessed as effect on body weight at 500 mg/kg, po administered as single dose for 15 days", "type": "organism-based", "settings": "in vivo, 360 h, time 15 day"}, "[13]": {"target": "T1, Protein deacetylase HDAC6", "assay": "Binding affinity to recombinant HDAC6 (unknown origin) assessed as inhibition constant using Boc-Lys(acetyl)-AMC as substrate preincubated for 1 hr followed by substrate addition and measured after 2 hrs by fluorescence based microplate reader analysis"}, "J774.A1": {"system": "J774.A1", "assay": "Inhibition of NLRP3 inflammasome activation in mouse J774.A1 cells assessed as cleavage of pro-caspase 1 to p20 measured at 5 to 20 microM after […] by Western blot analysis", "type": "functional, cell-based", "settings": "dose 5-20 µM, DDE = dose-dependent effect"}, "Histone deacetylase 2 [14]": {"target": "T2, Histone deacetylase 2", "assay": "Binding affinity to recombinant HDAC2 (unknown origin) assessed as inhibition constant using Boc-Lys(acetyl)-AMC as substrate preincubated for 1 hr followed by substrate addition and measured after 2 hrs by fluorescence based microplate reader analysis"}, "[15]": {"assay": "Plasma concentration in CD-1 mouse at 20 mg/kg measured after 1 hrs by LC-MS/MS analysis", "type": "ADME, organism-based"}, "[16]": {"assay": "Oral bioavailability in CD-1 mouse at 20 mg/kg measured after 0.083 to 24 hrs by LC-MS/MS analysis", "type": "ADME, organism-based", "settings": "in vivo, time 0.083-24 hrs"}, "[17]": {"assay": "AUC(0 to infinity) in CD-1 mouse at 20 mg/kg, po measured after 0.083 to 24 hrs by LC-MS/MS analysis", "type": "ADME, organism-based", "parameters": "dose 20 mg/kg, time 0.083-24 hrs, route po", "settings": "in vivo"}}, "note": "Active and inactive are the calls of the source. No cut-off for these calls is given here.", "data": [{"smiles": "CCNNC(=O)c1ccc(CN2c3ccccc3C=Cc3ccncc32)cc1", "values": [{"measurement": "IC50", "setting": "[1]", "value": 461, "unit": "nM"}, {"measurement": "Kp at 0.5 h", "setting": "[2]", "value": 1.45}, {"measurement": "IC50", "setting": "[3]", "value": 51, "unit": "nM"}, {"measurement": "Cmax", "setting": "[4]", "value": 5570, "unit": "ng/mL"}, {"measurement": "IC50", "setting": "[5]", "value": 31.7, "unit": "nM"}, {"measurement": "IC50", "setting": "Histone deacetylase 2 [6]", "value": 2060, "unit": "nM"}, {"measurement": "IC50", "setting": "Histone deacetylase 9", "value": "> 5000", "unit": "nM"}, {"measurement": "concentration at 4 h", "setting": "[7]", "value": 245, "unit": "ng/mL"}, {"measurement": "Activity", "setting": "Mus musculus [8]", "value": "Active"}, {"measurement": "Activity", "setting": "Mus musculus [9]", "value": "Active"}, {"measurement": "Ki", "setting": "Histone deacetylase 3", "value": 430, "unit": "nM"}, {"measurement": "IC50", "setting": "[10]", "value": 19, "unit": "nM"}, {"measurement": "inhibition", "setting": "[11]", "value": "Active"}, {"measurement": "Activity", "setting": "[12]", "value": "Non-Toxic"}, {"measurement": "Ki", "setting": "[13]", "value": 3, "unit": "nM"}, {"measurement": "Activity", "setting": "J774.A1", "value": "Dde"}, {"measurement": "Ki", "setting": "Histone deacetylase 2 [14]", "value": 1040, "unit": "nM"}, {"measurement": "concentration at 1 h", "setting": "[15]", "value": 5880, "unit": "ng/mL"}, {"measurement": "bioavailability", "setting": "[16]", "value": 93.4, "unit": "%"}, {"measurement": "AUC(0-inf)", "setting": "[17]", "value": 10300, "unit": "ng·h/mL"}]}]}
